Measured values from patent publication US12643871B2, “Aryl formamide compound containing chiral sulfur oxide or salt thereof, preparation method, herbicidal composition and use thereof” (Qingdao Kingagroot Chemical Compound Co., Ltd., priority 2019, dated 2026).

Key:
Assay in all cases: Weeding effect in post-emergence stage
Type in all cases: in vivo
Conditions in all cases: 250 g/ha; 2 leaf stage; 15 days after application; fresh weight control rate
[1] = tested on: Abutilon theophrasti
Procedure, shortened: (§1)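 Two-leaf-stage pot plants, spray-tower application at 500/250/125/60/30/15 g/ha with methyl oleate EC synergist; fresh weight control level (0–5) read at 15 days post-treatment, three replicates averaged.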

[2] = tested on: Amaranthus retroflexus
Procedure, shortened: as §1

[3] = tested on: Digitaria sanguinalis
Procedure, shortened: as §1

[4] = tested on: Echinochloa crusgali
Procedure, shortened: as §1

SMILES	weeding effect in post-emergence stage, activity level (growth control rate), Abutilon theophrasti [1]	weeding effect in post-emergence stage, activity level (growth control rate), Amaranthus retroflexus [2]	weeding effect in post-emergence stage, activity level (growth control rate), Digitaria sanguinalis [3]	weeding effect in post-emergence stage, activity level (growth control rate), Echinochloa crusgali [4]
Cc1c(C(=O)Nc2nnnn2C)ccc(S(C)(=O)=O)c1[S@+]([O-])CC1CC1 [Compound 518]	5 (Level 5: growth control rate is above 85%)	5 (Level 5: growth control rate is above 85%)	5 (Level 5: growth control rate is above 85%)	5 (Level 5: growth control rate is above 85%)
Cc1c(C(=O)Nc2nnnn2C)ccc(S(C)(=O)=O)c1[S+]([O-])COC(=O)C(C)(C)C (stereo not shown) [Compound 605]		5 (Level 5: growth control rate is above 85%)	5 (Level 5: growth control rate is above 85%)	5 (Level 5: growth control rate is above 85%)
Cc1c(C(=O)Nc2nnnn2C)ccc(S(C)(=O)=O)c1[S@+]([O-])CC(=O)N(C)C [Compound 606]		5 (Level 5: growth control rate is above 85%)	5 (Level 5: growth control rate is above 85%)	5 (Level 5: growth control rate is above 85%)
Cc1c(C(=O)Nc2nnnn2C)ccc(S(C)(=O)=O)c1[S@+]([O-])CCO [Compound 607]		5 (Level 5: growth control rate is above 85%)	5 (Level 5: growth control rate is above 85%)	5 (Level 5: growth control rate is above 85%)
Cc1c(C(=O)Nc2nnnn2C)ccc(S(C)(=O)=O)c1[S@+]([O-])CCC#N [Compound 608]		5 (Level 5: growth control rate is above 85%)	5 (Level 5: growth control rate is above 85%)	5 (Level 5: growth control rate is above 85%)
CC(=O)C[S@@+]([O-])c1c(S(C)(=O)=O)ccc(C(=O)Nc2nnnn2C)c1C [Compound 609]		5 (Level 5: growth control rate is above 85%)	5 (Level 5: growth control rate is above 85%)	5 (Level 5: growth control rate is above 85%)
Cc1nnc(NC(=O)c2ccc(S(C)(=O)=O)c([S@+]([O-])CCC#N)c2C)o1 [Compound 610]		5 (Level 5: growth control rate is above 85%)	5 (Level 5: growth control rate is above 85%)	5 (Level 5: growth control rate is above 85%)
CC(=O)C[S@@+]([O-])c1c(S(C)(=O)=O)ccc(C(=O)Nc2nnc(C)o2)c1C [Compound 611]		5 (Level 5: growth control rate is above 85%)	5 (Level 5: growth control rate is above 85%)	5 (Level 5: growth control rate is above 85%)
CCOCCn1nnnc1NC(=O)c1ccc(S(C)(=O)=O)c([S@+]([O-])CC)c1C [Compound 612]		5 (Level 5: growth control rate is above 85%)	5 (Level 5: growth control rate is above 85%)	5 (Level 5: growth control rate is above 85%)
C=CCC[S@@+]([O-])c1c(S(C)(=O)=O)ccc(C(=O)Nc2nnnn2C)c1C [Compound 619]		5 (Level 5: growth control rate is above 85%)	5 (Level 5: growth control rate is above 85%)	5 (Level 5: growth control rate is above 85%)
Cc1c(C(=O)Nc2nnnn2C)ccc(S(C)(=O)=O)c1[S@+]([O-])CC(C)O (stereo partly shown) [Compound 620]		5 (Level 5: growth control rate is above 85%)	5 (Level 5: growth control rate is above 85%)	5 (Level 5: growth control rate is above 85%)
Cc1nnc(NC(=O)c2ccc(Cl)c([S@@+](C)[O-])c2Cl)o1 [Compound 621]		5 (Level 5: growth control rate is above 85%)	5 (Level 5: growth control rate is above 85%)	5 (Level 5: growth control rate is above 85%)
CC[S@@+]([O-])c1c(S(C)(=O)=O)ccc(C(=O)Nc2nnnn2CCOC)c1C [Compound 622]		5 (Level 5: growth control rate is above 85%)	5 (Level 5: growth control rate is above 85%)	5 (Level 5: growth control rate is above 85%)
Cc1nnc(NC(=O)c2ccc(F)c([S@@+](C)[O-])c2F)o1 [Compound 623]		5 (Level 5: growth control rate is above 85%)	5 (Level 5: growth control rate is above 85%)	5 (Level 5: growth control rate is above 85%)
C#CCC[S@@+]([O-])c1c(S(C)(=O)=O)ccc(C(=O)Nc2nnc(C)o2)c1C [Compound 624]		5 (Level 5: growth control rate is above 85%)	5 (Level 5: growth control rate is above 85%)	5 (Level 5: growth control rate is above 85%)
Cc1nnc(NC(=O)c2ccc(S(C)(=O)=O)c([S@+]([O-])CCS(C)(=O)=O)c2C)o1 [Compound 625]		5 (Level 5: growth control rate is above 85%)	5 (Level 5: growth control rate is above 85%)	5 (Level 5: growth control rate is above 85%)
Cc1c(C(=O)Nc2nnnn2C)ccc(S(C)(=O)=O)c1[S+]([O-])CC1CCC1 (stereo not shown) [Compound 626]		5 (Level 5: growth control rate is above 85%)	5 (Level 5: growth control rate is above 85%)	5 (Level 5: growth control rate is above 85%)
Cc1nnc(NC(=O)c2ccc(S(C)(=O)=O)c([S@+]([O-])CCC(F)=C(F)F)c2C)o1 [Compound 627]		5 (Level 5: growth control rate is above 85%)	5 (Level 5: growth control rate is above 85%)	5 (Level 5: growth control rate is above 85%)
Cc1nnc(NC(=O)c2ccc(S(C)(=O)=O)c([S@+]([O-])CCCO)c2C)o1 [Compound 628]		5 (Level 5: growth control rate is above 85%)	5 (Level 5: growth control rate is above 85%)	5 (Level 5: growth control rate is above 85%)
CCn1nnnc1NC(=O)c1ccc(S(C)(=O)=O)c([S@+]([O-])CC)c1C [Compound 629]		5 (Level 5: growth control rate is above 85%)	5 (Level 5: growth control rate is above 85%)	5 (Level 5: growth control rate is above 85%)
CCC[S@@+]([O-])c1c(C(F)F)ccc(C(=O)Nc2nnnn2C)c1SC [Compound 867]		5 (Level 5: growth control rate is above 85%)	5 (Level 5: growth control rate is above 85%)	5 (Level 5: growth control rate is above 85%)
